Experimental data from US20250186393A1 (SANOFI, priority 2022, published 2025).

Experiments:
[1] = target: T1, UGT1A1 (Homo sapiens, UniProt P22309); details: cited from earlier work
T1 sequence (P22309 26-533): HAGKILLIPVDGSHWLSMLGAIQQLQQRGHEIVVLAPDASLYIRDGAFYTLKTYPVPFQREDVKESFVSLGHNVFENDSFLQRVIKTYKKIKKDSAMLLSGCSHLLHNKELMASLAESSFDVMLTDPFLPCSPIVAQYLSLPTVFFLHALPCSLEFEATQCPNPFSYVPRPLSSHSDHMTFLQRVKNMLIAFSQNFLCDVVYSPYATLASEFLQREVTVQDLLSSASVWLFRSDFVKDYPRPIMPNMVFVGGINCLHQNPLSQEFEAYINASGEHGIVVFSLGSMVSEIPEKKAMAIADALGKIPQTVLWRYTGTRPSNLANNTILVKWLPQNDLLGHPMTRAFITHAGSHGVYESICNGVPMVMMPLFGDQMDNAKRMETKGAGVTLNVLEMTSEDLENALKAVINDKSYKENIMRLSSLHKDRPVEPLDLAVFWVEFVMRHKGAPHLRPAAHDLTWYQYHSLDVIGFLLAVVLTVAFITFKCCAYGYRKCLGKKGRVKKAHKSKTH

[2] = AMEERA-3 safety: treatment-emergent adverse events, safety population; type: in vivo
Source text: Secondary endpoints are defined as follows: • Overall survival: the time interval from the date of randomization to the date of documented death (due to any cause); • Objective response rate: the proportion of participants who have a confirmed complete response (CR) or partial response (PR), as best overall response (BOR) derived from overall response determined by ICR as per RECIST 1.1, from the date of randomization to the date of end of treatment; • Disease control rate: the proportion of participants who have a confirmed CR, PR, stable disease (SD), or Non-CR/Non-PD as BOR determined by ICR as per RECIST 1.1 from the date of randomization to the date of end of treatment; • Clinical benefit rate: the proportion of participants who have a confirmed CR, PR, SD, or Non-CR/Non-PD for at least 24 weeks determined by ICR as per RECIST 1.1, from the date of randomization to the date of end of treatment; • Progression-free survival as per ESR1 status: determined at Cycle 1 Day 1; • Overall safety profile: evaluated by adverse events/serious adverse events and laboratory abnormalities.
Concerning monitoring of adverse events, mention may be made of adverse events of special interest (AESI), who correspond to an adverse event (serious or nonserious) of scientific and medical concern specific to the Sponsor's product or program, for which ongoing monitoring and immediate notification by the Investigator to the Sponsor is required. Such events may require further investigation in order to characterize and understand them. For example: pregnancy of a participant or of a female partner of a participant entered in a study with IMP, symptomatic overdose with IMP, increase in ALT of a grade equal to or greater than 3, or photosensitivity.
The analysis populations were defined as follows: • Enrolled population: all patients who signed the informed consent form. • Intent-to-treat (ITT) population: all patients from the enrolled population and for whom there was a confirmation of successful allocation of a randomization number by Interactive Response Technology (IRT). Patients were analyzed according to the treatment arm assigned at randomization. • Safety population: all patients randomly assigned to study intervention and who took at least one dose of study intervention. Patients were analyzed according to the treatment arm they actually received.
The overview of adverse events (TEAEs: Treatment Emergent Adverse Events; SAEs: Serious Adverse Events; AESI: Adverse Events of Special Interest) is presented in Table 13.

[3] = target: T2, UGT1A4 (Homo sapiens, UniProt P22310); details: cited from earlier work
T2 sequence (P22310 29-534): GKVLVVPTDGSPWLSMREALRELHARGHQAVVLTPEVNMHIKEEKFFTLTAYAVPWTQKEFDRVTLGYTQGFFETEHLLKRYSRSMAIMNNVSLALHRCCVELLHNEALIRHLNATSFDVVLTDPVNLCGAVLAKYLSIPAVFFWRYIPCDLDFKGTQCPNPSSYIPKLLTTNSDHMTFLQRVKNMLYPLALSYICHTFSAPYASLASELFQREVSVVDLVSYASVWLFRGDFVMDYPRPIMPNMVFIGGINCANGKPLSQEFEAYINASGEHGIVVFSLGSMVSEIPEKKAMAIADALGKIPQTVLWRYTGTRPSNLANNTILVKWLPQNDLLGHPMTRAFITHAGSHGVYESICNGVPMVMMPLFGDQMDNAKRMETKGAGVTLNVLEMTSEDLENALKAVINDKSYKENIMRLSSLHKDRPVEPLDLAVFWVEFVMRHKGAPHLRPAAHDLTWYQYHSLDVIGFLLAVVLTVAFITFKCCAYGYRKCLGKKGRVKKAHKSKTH

[4] = tested on: estrogen receptor (ER)-positive, HER2-negative locally advanced or metastatic breast cancer; test: AMEERA-3 open label randomized Phase 2 trial, efficacy (PFS, OS, ORR, CBR, DCR per RECIST 1.1 by ICR); type: in vivo, human
[5] = amcenestrant 400 mg QD, Kaplan-Meier

For `O=C(O)c1ccc2c(c1)CCCC(c1ccc(Cl)cc1Cl)=C2c1ccc(O[C@H]2CCN(CCCF)C2)cc1` [Amcenestrant, 6-(2,4-dichlorophenyl)-5-[4-[(3S)-1-(3-fluoropropyl)pyrrolidin-3-yl]oxyphenyl]-8,9-dihydro-7H-benzo[7]annulene-2-carboxylic acid], the “Substrate of UGT1A1” value [1] is given as “substrate”, the Bradycardia/QTc prolongation ([2]; amcenestrant treatment arm) is given as “no bradycardia/QTc prolongation is observed” and the Gastrointestinal disorders ([2]; mostly of Grade 1 or 2) is given as 44.8%. For the same compound, the “Skin and subcutaneous tissue disorders” value ([2]; mostly of Grade 1 or 2) was 18.9%, the “Participants with any AESI, %” value ([2]; safety population) was “(0.7) %” and the “Participants with any TEAE leading to treatment discontinuation, %” value ([2]; safety population) was “(3.5) %”. For the same compound, the “Participants with any TEAE, %” value ([2]; safety population) was “(82.5) %”, the “Participants with any grade ≥3 TEAE, %” value ([2]; safety population) was “(21.7) %” and the “Participants with any treatment emergent SAE, %” value ([2]; safety population) was “(16.1) %”. The “Participants with any treatment-related TEAE, %” value ([2]; safety population) was “(44.8) %”, the “Participants with any grade 5 TEAE, %” value ([2]; safety population, during the treatment period) was “(3.5) %” and the “Substrate of UGT1A4” value [3] was “substrate”. The “Reduction in risk for disease progression or death” value ([4]; ESR1 mutation at baseline, amcenestrant compared to PCEM) was 10.0%, the “Progression-free survival rate at 12 months” value [4, 5] was 20.4% and the “Progression-free survival rate at six months” value [4, 5] was 35.5%.
